Experimental data taken from PubChem BioAssay (NCI).
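How tested: cells in 96-well plates exposed to compound for 48 hours at five concentrations. TGI marks complete inhibition of growth.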

Legend:
Experiment in all cases: DTP human tumour cell line panel, 48 h
A549 NSCLC = tested on: A549 NSCLC
M14 melanoma = tested on: M14 melanoma
OVCAR-5 ovarian = tested on: OVCAR-5 ovarian
UACC-62 melanoma = tested on: UACC-62 melanoma
MOLT-4 leukemia = tested on: MOLT-4 leukemia
SN12C renal = tested on: SN12C renal
IGROV1 ovarian = tested on: IGROV1 ovarian
SF-295 CNS = tested on: SF-295 CNS
SK-MEL-2 melanoma = tested on: SK-MEL-2 melanoma
SK-OV-3 ovarian = tested on: SK-OV-3 ovarian
786-0 renal = tested on: 786-0 renal
TK-10 renal = tested on: TK-10 renal
NCI-H522 lung = tested on: NCI-H522 lung
MDA-MB-231 breast = tested on: MDA-MB-231 breast
HT29 colon = tested on: HT29 colon
KM12 colon = tested on: KM12 colon
HOP-92 NSCLC = tested on: HOP-92 NSCLC
NCI-H460 lung = tested on: NCI-H460 lung
OVCAR-4 ovarian = tested on: OVCAR-4 ovarian
BT-549 breast = tested on: BT-549 breast
PC-3 prostate = tested on: PC-3 prostate
SR leukemia = tested on: SR leukemia
HCT-116 colon = tested on: HCT-116 colon
K-562 leukemia = tested on: K-562 leukemia
SF-539 CNS = tested on: SF-539 CNS
RXF 393 renal = tested on: RXF 393 renal
HOP-62 NSCLC = tested on: HOP-62 NSCLC
CCRF-CEM leukemia = tested on: CCRF-CEM leukemia
MDA-N = tested on: MDA-N
NCI/ADR-RES ovarian = tested on: NCI/ADR-RES ovarian
SNB-19 CNS = tested on: SNB-19 CNS
U251 CNS = tested on: U251 CNS
EKVX NSCLC = tested on: EKVX NSCLC
HCT-15 colon = tested on: HCT-15 colon
ACHN renal = tested on: ACHN renal
UACC-257 melanoma = tested on: UACC-257 melanoma
LOX IMVI melanoma = tested on: LOX IMVI melanoma
SF-268 CNS = tested on: SF-268 CNS
COLO 205 colon = tested on: COLO 205 colon
SW-620 colon = tested on: SW-620 colon
MCF7 breast = tested on: MCF7 breast
NCI-H23 lung = tested on: NCI-H23 lung
OVCAR-8 ovarian = tested on: OVCAR-8 ovarian
SNB-75 CNS = tested on: SNB-75 CNS
SK-MEL-5 melanoma = tested on: SK-MEL-5 melanoma
OVCAR-3 ovarian = tested on: OVCAR-3 ovarian
CAKI-1 renal = tested on: CAKI-1 renal
HS 578T breast = tested on: HS 578T breast
DU-145 prostate = tested on: DU-145 prostate
UO-31 renal = tested on: UO-31 renal
MDA-MB-435 = tested on: MDA-MB-435
HCC-2998 colon = tested on: HCC-2998 colon
NCI-H226 lung = tested on: NCI-H226 lung
RPMI-8226 leukemia = tested on: RPMI-8226 leukemia
T-47D breast = tested on: T-47D breast
MALME-3M melanoma = tested on: MALME-3M melanoma
HL-60(TB) leukemia = tested on: HL-60(TB) leukemia
SK-MEL-28 melanoma = tested on: SK-MEL-28 melanoma

`COc1c(C)c(C/C=C(\C)CCCCO[Si](C(C)C)(C(C)C)C(C)C)c(OC)c2ccccc12` was tested, and the TGI (A549 NSCLC) was over 100 µM, the TGI (M14 melanoma) was over 100 µM and the TGI (OVCAR-5 ovarian) was over 100 µM. The TGI (UACC-62 melanoma) was over 100 µM, the TGI (MOLT-4 leukemia) was over 100 µM and the TGI (SN12C renal) was over 100 µM. The TGI (IGROV1 ovarian) was over 100 µM, the TGI (SF-295 CNS) was over 100 µM and the TGI (SK-MEL-2 melanoma) was over 100 µM. The TGI (SK-OV-3 ovarian) was over 100 µM, the TGI (786-0 renal) was over 100 µM and the TGI (TK-10 renal) was over 100 µM. The TGI (NCI-H522 lung) was over 100 µM, the TGI (MDA-MB-231 breast) was over 100 µM and the TGI (HT29 colon) was over 100 µM. For the same compound, the TGI (KM12 colon) was over 100 µM, the TGI (HOP-92 NSCLC) was over 100 µM and the TGI (NCI-H460 lung) was over 100 µM. The TGI (OVCAR-4 ovarian) was over 100 µM, the TGI (BT-549 breast) was over 100 µM and the TGI (PC-3 prostate) was over 100 µM. The TGI (SR leukemia) was over 100 µM, the TGI (HCT-116 colon) was over 100 µM and the TGI (K-562 leukemia) was over 100 µM. For the same compound, the TGI (SF-539 CNS) was over 100 µM, the TGI (RXF 393 renal) was over 100 µM and the TGI (HOP-62 NSCLC) was over 100 µM. It also gave a TGI (CCRF-CEM leukemia) of 89.3 µM, a TGI (MDA-N) of over 100 µM and a TGI (NCI/ADR-RES ovarian) of over 100 µM. It also gave a TGI (SNB-19 CNS) of over 100 µM, a TGI (U251 CNS) of over 100 µM and a TGI (EKVX NSCLC) of over 100 µM. For the same compound, the TGI (HCT-15 colon) was over 100 µM, the TGI (ACHN renal) was over 100 µM and the TGI (UACC-257 melanoma) was over 100 µM. For the same compound, the TGI (LOX IMVI melanoma) was over 100 µM, the TGI (SF-268 CNS) was over 100 µM and the TGI (COLO 205 colon) was over 100 µM. The TGI (SW-620 colon) was over 100 µM, the TGI (MCF7 breast) was over 100 µM and the TGI (NCI-H23 lung) was over 100 µM. It also gave a TGI (OVCAR-8 ovarian) of over 100 µM, a TGI (SNB-75 CNS) of over 100 µM and a TGI (SK-MEL-5 melanoma) of over 100 µM. The TGI (OVCAR-3 ovarian) was over 100 µM, the TGI (CAKI-1 renal) was over 100 µM and the TGI (HS 578T breast) was over 100 µM. For the same compound, the TGI (DU-145 prostate) was over 100 µM, the TGI (UO-31 renal) was over 100 µM and the TGI (MDA-MB-435) was over 100 µM.
With `CCOC(=O)c1ccc(Nc2nc3cc(C(F)(F)F)ccc3nc2-c2ccccc2)cc1` the TGI (A549 NSCLC) was over 100 µM, the TGI (OVCAR-5 ovarian) was over 100 µM and the TGI (UACC-62 melanoma) was 29.4 µM. It also gave a TGI (MOLT-4 leukemia) of over 10 µM, a TGI (SN12C renal) of over 100 µM and a TGI (IGROV1 ovarian) of over 100 µM. For the same compound, the TGI (SF-295 CNS) was 60.6 µM, the TGI (HCC-2998 colon) was 89.5 µM and the TGI (786-0 renal) was 44.8 µM. The TGI (TK-10 renal) was over 10 µM, the TGI (NCI-H226 lung) was over 100 µM and the TGI (RPMI-8226 leukemia) was over 100 µM. It also gave a TGI (NCI-H522 lung) of over 100 µM, a TGI (MDA-MB-231 breast) of over 100 µM and a TGI (HT29 colon) of over 10 µM. For the same compound, the TGI (T-47D breast) was 91.6 µM, the TGI (KM12 colon) was over 100 µM and the TGI (NCI-H460 lung) was over 100 µM. It also gave a TGI (BT-549 breast) of over 100 µM, a TGI (PC-3 prostate) of 69.2 µM and a TGI (SR leukemia) of over 100 µM. It also gave a TGI (HCT-116 colon) of over 100 µM, a TGI (K-562 leukemia) of over 100 µM and a TGI (SF-539 CNS) of over 100 µM. For the same compound, the TGI (RXF 393 renal) was 98 µM, the TGI (HOP-62 NSCLC) was 61.7 µM and the TGI (CCRF-CEM leukemia) was over 100 µM. The TGI (MDA-N) was over 100 µM, the TGI (NCI/ADR-RES ovarian) was over 100 µM and the TGI (SNB-19 CNS) was over 100 µM. It also gave a TGI (U251 CNS) of 49.5 µM, a TGI (EKVX NSCLC) of over 100 µM and a TGI (MALME-3M melanoma) of over 100 µM. It also gave a TGI (HL-60(TB) leukemia) of over 100 µM, a TGI (HCT-15 colon) of over 100 µM and a TGI (ACHN renal) of 47.5 µM. For the same compound, the TGI (UACC-257 melanoma) was over 100 µM, the TGI (LOX IMVI melanoma) was over 100 µM and the TGI (SF-268 CNS) was over 100 µM. For the same compound, the TGI (COLO 205 colon) was over 100 µM, the TGI (SK-MEL-28 melanoma) was over 100 µM and the TGI (SW-620 colon) was over 100 µM. The TGI (MCF7 breast) was over 100 µM, the TGI (NCI-H23 lung) was over 100 µM and the TGI (OVCAR-8 ovarian) was over 100 µM. It also gave a TGI (SNB-75 CNS) of 39.4 µM, a TGI (SK-MEL-5 melanoma) of over 100 µM and a TGI (OVCAR-3 ovarian) of over 100 µM. The TGI (CAKI-1 renal) was over 100 µM, the TGI (HS 578T breast) was 84.2 µM and the TGI (DU-145 prostate) was over 100 µM. For the same compound, the TGI (UO-31 renal) was over 100 µM and the TGI (MDA-MB-435) was over 100 µM.
